Results: PubChem BioAssay AID192 (DTP/NCI, 2004)
Values joined by “and” are separate entries in the source; they are usually repeats but may differ in a detail not shown here. Equal values may be shown once. Inconclusive results and toxic doses are left out. How the source made its calls: active means survival T/C of 150% or more; inactive means T/C below 125% in these data.

System: BDF1 mice, B16 melanoma ip, median survival T/C
Experiment: NCI In Vivo Anticancer Drug Screen. Data for tumor model B16 Melanoma (intraperitoneal) in B6D2F1 (BDF1) mice
Settings: endpoint: median survival time, higher = longer survival
In short: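 Values are ratios of treated (T) to vehicle-control (C) measurements of survival or tumor size in tumor-bearing mice.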

[1] = dose: 6.25 mg/kg/injection, schedule: Q01DX009 (ip), vehicle: saline with Tween-80
[2] = dose: 12.5 mg/kg/injection, schedule: Q01DX009 (ip), vehicle: saline with Tween-80
[3] = dose: 25.0 mg/kg/injection, schedule: Q01DX009 (ip), vehicle: saline with Tween-80

Measured: T/C

CCN(CC)C(=O)c1ccc(C(Cl)(Cl)Cl)cc1
inactive: [1] 95 % of control | [2] 98 % of control | [3] 90 % of control and 92 % of control

C/C=C(\C)c1cc(=O)c2c(C)cc3c(c2o1)C(=O)c1c(O)c(C2CC(C)(N(C)C)C(O)C(C)O2)cc(C2CC(N(C)C)C(O)C(C)O2)c1C3=O (centres undefined)
inactive: dose: 0.5 mg/kg/injection, schedule: Q01DX009 (ip), vehicle: Klucel (hydroxypropylcellulose) (HPC) 104 % of control | dose: 31.0 micrograms/kg/injection, schedule: Q01DX009 (ip), vehicle: saline 102 % of control | dose: 39.06 micrograms/kg/injection, schedule: Q01DX009 (ip), vehicle: saline 123 % of control | dose: 62.0 micrograms/kg/injection, schedule: Q01DX009 (ip), vehicle: saline 113 % of control | dose: 156.0 micrograms/kg/injection, schedule: Q01DX009 (ip), vehicle: saline 118 % of control | dose: 250.0 micrograms/kg/injection, schedule: Q01DX009 (ip), vehicle: saline 105 % of control | dose: 312.5 micrograms/kg/injection, schedule: Q01DX009 (ip), vehicle: saline 122 % of control | dose: 625.0 micrograms/kg/injection, schedule: Q01DX009 (ip), vehicle: saline 94 % of control and 100 % of control

NC(N)=NC(N)=Nc1ccc(-c2ccc(N=C(N)N=C(N)N)cc2)cc1
inactive: [1] 102 % of control | [2] 96 % of control

COc1ccc(N=C=S)cc1N=C=S
inactive: [1] 102 % of control | dose: 6.25 mg/kg/injection, schedule: Q04DX003 (ip), vehicle: saline with Tween-80 105 % of control | [2] 92 % of control | dose: 12.5 mg/kg/injection, schedule: Q04DX003 (ip), vehicle: saline with Tween-80 115 % of control | [3] 100 % of control | dose: 25.0 mg/kg/injection, schedule: Q04DX003 (ip), vehicle: saline with Tween-80 113 % of control

Nc1nc(Cl)c2[nH]cnc2n1
inactive: dose: 0.09 mg/kg/injection, schedule: Q01DX009 (ip), vehicle: other 114 % of control | dose: 0.19 mg/kg/injection, schedule: Q01DX009 (ip), vehicle: other 113 % of control | dose: 0.38 mg/kg/injection, schedule: Q01DX009 (ip), vehicle: other 105 % of control | dose: 0.75 mg/kg/injection, schedule: Q01DX009 (ip), vehicle: other 88 % of control and 111 % of control | dose: 1.5 mg/kg/injection, schedule: Q01DX009 (ip), vehicle: other 110 % of control | dose: 3.0 mg/kg/injection, schedule: Q01DX009 (ip), vehicle: other 101 % of control and 108 % of control | dose: 6.0 mg/kg/injection, schedule: Q01DX009 (ip), vehicle: other 89 % of control | dose: 50.0 mg/kg/injection, schedule: Q01DX009 (ip), vehicle: other 93 % of control

Oc1ccc(O)cc1
inactive: dose: 0.78 mg/kg/injection, schedule: Q01DX009 (ip), vehicle: saline 92 % of control | dose: 1.56 mg/kg/injection, schedule: Q01DX009 (ip), vehicle: saline 89 % of control | dose: 3.12 mg/kg/injection, schedule: Q01DX009 (ip), vehicle: saline 89 % of control | dose: 25.0 mg/kg/injection, schedule: Q01DX009 (ip), vehicle: saline 89 % of control and 117 % of control | dose: 50.0 mg/kg/injection, schedule: Q01DX009 (ip), vehicle: saline 96 % of control and 118 % of control

CC1NC(=O)COC1c1ccccc1 (centres undefined)
inactive: dose: 12.5 mg/kg/injection, schedule: Q01DX009 (ip), vehicle: Klucel (hydroxypropylcellulose) (HPC) 95 % of control | dose: 12.5 mg/kg/injection, schedule: Q04DX003 (ip), vehicle: saline 95 % of control | dose: 25.0 mg/kg/injection, schedule: Q01DX009 (ip), vehicle: Klucel (hydroxypropylcellulose) (HPC) 95 % of control | dose: 25.0 mg/kg/injection, schedule: Q04DX003 (ip), vehicle: saline 92 % of control | dose: 50.0 mg/kg/injection, schedule: Q01DX009 (ip), vehicle: Klucel (hydroxypropylcellulose) (HPC) 102 % of control | dose: 50.0 mg/kg/injection, schedule: Q04DX003 (ip), vehicle: saline 97 % of control | dose: 100.0 mg/kg/injection, schedule: Q01DX009 (ip), vehicle: Klucel (hydroxypropylcellulose) (HPC) 97 % of control | dose: 100.0 mg/kg/injection, schedule: Q04DX003 (ip), vehicle: saline 95 % of control | dose: 200.0 mg/kg/injection, schedule: Q04DX003 (ip), vehicle: saline 97 % of control

CCOC(=O)c1ccc(OC(=O)Nc2ccccc2)cc1
inactive: [3] 97 % of control | dose: 50.0 mg/kg/injection, schedule: Q01DX009 (ip), vehicle: saline with Tween-80 97 % of control | dose: 100.0 mg/kg/injection, schedule: Q01DX009 (ip), vehicle: saline with Tween-80 93 % of control and 95 % of control
